Data reported in patent US8148392B2, “2-indolyl imidazo [4,5-d] phenanthroline derivatives and their use in the treatment of cancer” (Lorus Therapeutics Inc., priority 2005, dated 2012).
pIC50: −log10 of the molar value. Entries after “also recorded” stand apart in the source; their conditions may differ. Like-named read-outs stand apart in the source and are kept apart here.

Legend:
Type in all cases: cell-based, human
[1] = test system: DU-145 prostate cancer cells; assay: XTT cell proliferation assay, DU-145; conditions: read-out: IC50 (cell growth inhibition)
Description: (§1) Cell growth inhibition IC50 (μM) by compounds of Formula I was tested on various cancer cell types by XTT cell proliferation assay. The growth inhibitory effects of the compounds of Formula I as shown below for the melanoma cell line SK-MEL-2 were reproducible by Lorus Therapeutics Inc.

[2] = test system: CCRF-CEM leukemia cells; assay: XTT cell proliferation assay, CCRF-CEM; conditions: read-out: IC50 (cell growth inhibition)
Description: as §1

[3] = test system: KLF4; assay: KLF4 gene expression by RT-PCR, HCT-116; conditions: HCT-116, relative to vehicle control as 1
Description: (§2) Gene expression levels of KLF4, induced by compounds of Formula I, were also examined on various cancer cell types by RT-PCR. Fold changes in KLF4 in compound-treated cells were expressed relative to KLF4 expression in vehicle control-treated cells of respective cell type as “1”. […] Additionally, xenografts of MDA-MB-435 implanted into mammary fat pads of female SCID mice have shown immunohistochemical staining consistent with melanocytic origin (Ellison G, Klinowska T, Westwood R F, Docter E, French T, Fox J C. (2002) Mol Pathol. 55(5): 294-299). The breast cancer cell line MDA-MB-435 may be expected to function differently than the other breast cancer cell lines.

[4] = test system: metallothionein 1A (MT1A); assay: Metallothionein 1A (MT1A) mRNA expression in HT-29 cells, real time PCR; conditions: for MT1A expression change with zinc supplement: HT-29, 1 μM compound plus 35 μM ZnCl2; for MT1A gene expression, change: HT-29, versus DMSO control, in words
Description: To determine whether compounds of Formula I can chelate zinc in cells, the effect of compound 3 on the expression level of a zinc-regulated gene, metallothionein 1A (MT1A), in human colon carcinoma HT-29 cells, was determined. HT-29 cells, 1×10^6 cells in 10 mL volume of the growth medium were seeded in 100 mm dishes and incubated overnight at 37° C. The medium was removed and replaced with the growth medium containing 35 μM ZnCl2, 1 μM or 4 μM TPEN (NNNN-tetrakis(2-pyridyl-methyl)ethylenediamine), or 1 μM or 4 μM compound 3, or 0.1% DMSO vehicle control. After incubation for 16 hours, the cells were detached by trypsinization, collected by centrifugation and washed once with PBS. Total RNA was extracted by using TRIZOL (Invitrogen, Life Technologies, Carlsbad, Calif.), following manufacturer's instruction, and the level of MT1A mRNA was measured by real time PCR using the comparative CT method as follows. First strand cDNA was synthesized from 200 ng total RNA in Biometra Tpersonal Thermal Cycler (Abgene, UK), using pd(N)6 random hexamer (Amersham Biosciences, Piscataway, N.J.) and SuperScript™ II Reverse Transcriptase kit (Invitrogen) by following manufacturer's protocol. Real-time PCR was performed in ABI Prism 7000 Sequence Detection System (Applied Biosystems Inc., ABI, Foster City, Calif.), using 5 μL of cDNA synthesized by above-mentioned procedure and respective TaqMan® Gene Expression Assays (ABI) by following ABI TaqMan® Universal PCR master mix protocol.
The effect of compound 3 and compound 7 treatment on the expressions of a zinc-storage protein meallothionein 1A (MT1A) (FIG. 29A), a copper transporter, Ctrl also known as SLC31A1 (FIG. 29B) and an iron transporter; transferrin receptor 1 (TfR1) (FIG. 29C) were measured and compared with a known zinc chelator TPEN, a copper chelator tetramine and an iron chelator DFO, respectively. Despite in vitro chelation of Cu^+2, increase in copper-sensitive gene after compound 3 treatment was transient.
HT-29 cells were treated with 1 μM compound 3 for the indicated time and MT1A gene expression was measured as follows. Total RNA was extracted using TRIZOL method and gene expression level was determined by quantitative reverse-transcription polymerase chain reaction (RT-PCR). MT1A gene expression was normalized with β-actin gene expression in the same sample. Fold change in MT1A was expressed relative to MT1A level of DMSO control at respective time points.
To verify that the MT1A gene expression reflected the intracellular zinc level, HT-29 cells were treated with 1 μM compound 3, 35 μM ZnCl2 or compound 3 and ZnCl2 together for 16 hr (FIG. 38B). MT1A gene expression was determined by RT-PCR as described above. MT1A gene expression was elevated in response to increased intracellular zinc ions in ZnCl2-treated cells.
(§3) The ability of compounds of Formula I to modulate gene expression of MT1A (FIG. 55A), MTF-1 (FIG. 55B), Cyclin D1 (FIG. 55C) and KLF4 (FIG. 55D) was determined by RT-PCR. HT-29 cells were treated with 1 μM compound 3 or compound 7, 35 μM ZnCl2, compound 3 and ZnCl2 together, or compound 7 and ZnCl2 together for 8 to 16 hr. The respective gene expression was normalized with β-actin gene expression in the same sample. Fold change in gene expression was expressed relative to the respective gene level of DMSO control.
(§4) The effect of compound 3 and compound 64 on gene expression changes in MT1A (FIG. 57A), MTF-1 (FIG. 57B), Cyclin D1 (FIG. 57C) and KLF4 (FIG. 57D) in HT-29 cells was determined by RT-PCR. HT-29 cells were treated with 1 μM compound 3 or compound 64, 35 μM ZnCl2, compound 3 and ZnCl2 together, or compound 64 and ZnCl2 together for 8 to 16 hr. The respective gene expression was normalized with β-actin gene expression in the same sample. Fold change in gene expression was expressed relative to the respective gene level of DMSO control.

[5] = test system: KLF4; assay: KLF4 gene expression by RT-PCR, PC-3; conditions: PC-3, relative to vehicle control as 1
Description: as §2

[6] = test system: KLF4; assay: KLF4 gene expression by RT-PCR, MOLT-4; conditions: MOLT-4, relative to vehicle control as 1
Description: as §2

[7] = test system: MTF-1; assay: MTF-1 gene expression in HT-29 cells, RT-PCR; conditions: for MTF-1 expression change with zinc supplement: HT-29, 1 μM compound plus ZnCl2, 8 hr; for MTF-1 gene expression, change: HT-29, 1 μM, in words
Description: The gene expression of MTF-1 was examined by RT-PCR following treatment of HT-29 cells with 1 μM compound 3 for indicated time.
To assess the cellular response to zinc depletion, the gene expression of zinc-sensitive transcription factor MTF-1 was examined.
as §3, §4

[8] = test system: HCT-116 colon cancer cells; assay: XTT cell proliferation assay, HCT-116; conditions: read-out: IC50 (cell growth inhibition)
Description: as §1

[9] = test system: KLF4; assay: KLF4 gene expression by RT-PCR, CCRF-CEM; conditions: relative to vehicle control as 1
Description: as §2

[10] = test system: MDA-MB-435 breast cancer cells; assay: XTT cell proliferation assay, MDA-MB-435; conditions: read-out: IC50 (cell growth inhibition)
Description: as §1

[11] = test system: KLF4; assay: KLF4 gene expression by RT-PCR, SK-MEL-2; conditions: SK-MEL-2, relative to vehicle control as 1
Description: as §2

[12] = test system: SK-MEL-2 melanoma cells; assay: XTT cell proliferation assay, SK-MEL-2; conditions: read-out: IC50 (cell growth inhibition)
Description: as §1

| pIC50 [1] | pIC50 [2] | pIC50 [8] | pIC50 [10] | pIC50 [12] | Compound | pIC50 ([1]; Homo sapiens) | pIC50 ([2]; Homo sapiens) | KLF4 (gene fold increase) [3] [fold] | MT1A expression change with zinc supplement [4] | decrease of MT1A expression ([4]; HT-29, 16 hours, 1 μM or 4 μM) | MT1A gene expression, change [4] | KLF4 (gene fold increase) [5] [fold] | KLF4 (gene fold increase) [6] [fold] | MTF-1 expression change with zinc supplement [7] | MTF-1 gene expression, change [7] | pIC50 ([8]; Homo sapiens) | KLF4 (gene fold increase) [9] [fold] | pIC50 ([10]; Homo sapiens) | KLF4 (gene fold increase) [11] [fold] | pIC50 ([12]; Homo sapiens) |
| --- | --- | --- | --- | --- | --- | --- | --- | --- | --- | --- | --- | --- | --- | --- | --- | --- | --- | --- | --- | --- |
| – | – | – | – | – | Cc1[nH]c2ccccc2c1-c1nc2c3cccnc3c3ncccc3c2[nH]1 [Compound 3] | 6.46 | 6.38 | 5.88 | reversed by addition of zinc supplement | more than 50% | sustained decrease in zinc-sensitive gene; also recorded: decrease in MT1A gene expression was obvious after 8 hr treatment; also recorded: decreased expressions of MT1A, MTF-1 and Cyclin D1 | 16.28 | 44.79 | recovered by addition of zinc supplement; also recorded: reversed by addition of zinc supplement | Time-dependent decreases; also recorded: decrease in MTF-1 expression was observed after 8 hr treatment; also recorded: significant decrease in gene expression of MTF-1; also recorded: decreased expressions of MT1A, MTF-1 and Cyclin D1 | 6.70 | 28.05 | 6.46 | 2.38 | 6.60 |
| – | – | – | – | – | Cc1[nH]c2ccc(F)cc2c1-c1nc2c3cccnc3c3ncccc3c2[nH]1 [Compound 7] | 6.66 | 6.40 | 6.15 | reversed by addition of zinc supplement | – | decreased expressions of MT1A, MTF-1 and Cyclin D1 | 12.17 | 173.6 | reversed by addition of zinc supplement | decreased expressions of MT1A, MTF-1 and Cyclin D1 | 6.82 | 48.5 | 6.70 | 3.32 | 6.70 |
| 6.52 | 6.60 | 6.70 | 6.30 | 6.70 | CCc1cccc2c(-c3nc4c5cccnc5c5ncccc5c4[nH]3)c(C(C)(C)C)[nH]c12 [Compound 64] | – | – | 3.05 | reversed by addition of zinc supplement | – | decreased expressions of MT1A, MTF-1 and Cyclin D1 | 1.36 | 265.03 | reversed by addition of zinc supplement | decreased expressions of MT1A, MTF-1 and Cyclin D1 | – | 73.77 | – | 5.35 | – |
